Consider seven compounds from patent US20140329863A1 (priority 2011, published 2014).

The test system of one series is PrP^C in N2a-c13 cells. The format is cell-based, mouse. The settings on record: read-out: EC50 (μM) ELISA in N2a-cl3 cells (value in parentheses). (ELISA stands for enzyme-linked immunosorbent assay.)
The subject of series [1] is PrP^C in T98G cells. Format: cell-based, human. The conditions noted are these: for EC50: read-out: EC50 (μM) ELISA potency, PrP^C in T98G cells.
For series [2], the system named is PrP^Sc in dividing ScN2a-c13 cells. The conditions noted are these: dividing ScN2a-c13 cells.
The subject of series [3] is PrP^Sc in nondividing ScN2a-c13 cells. The format is cell-based, mouse.
Series [4] concerns PrP^C in IMR32 cells. Format: cell-based, human. The conditions noted are these: IMR32 cells.
Series [5] concerns PrP^C in T98G cells. Format: cell-based, human.
Series [6] can be described thus: Hepatic microsomal stability, human. The conditions noted are these: for half-life at 1 μM: human, pH 7.4.
A short description of series [7]: Hepatic microsomal stability, mouse. The conditions noted are these: for half-life at 1 μM: pH 7.4.
Series [8] in a line: Hepatic microsomal stability, rat. The conditions noted are these: for half-life at 1 μM: Sprague-Dawley, rat, pH 7.4.
In series [9] the test system is PrP^Sc in dividing ScN2a-cl3 cells. The format is cell-based, mouse.
Series [10] in a line: Tolerability / toxicity on repeated dosing in mice.
A short description of series [11]: Multidose (three-day) pharmacokinetics in liquid diet in FVB mice. The settings on record: FVB, mouse, in vivo.
A further series in a line: Binding in human plasma. The settings on record: 1 μM; mean ± SD, n = 3 (warfarin n = 2).
The nature of another series: Binding in mouse plasma. The settings on record: 1 μM; mean ± SD, n = 3 (warfarin n = 2).
The subject of the next series is prion-infected mice. The conditions noted are these: literature reports; cited from earlier work.
Series [12] in a line: Toleration studies in mice.
Series [13] in a line: Fraction unbound in cell-culture media. Format: in vitro ADME. The settings on record: 1 μM; mean ± SD, n = 3.
Series [14] can be described thus: Single-dose pharmacokinetics in FVB mice (oral gavage, IV). The conditions noted are these: for Kp / bioavailability: female, FVB, mouse, po, 10 mg/kg; for Kp: brain and plasma; for bioavailability: plasma.
The next series has as its system IMR32 cells. Format: cell-based, human.
The test system of another series is T98G cells. In words: cells. The format is cell-based, human. The settings on record: calcein, T98G cells.
Series [15] relates to PrP^C in IMR32 cells. The format is cell-based, human.
The next series deals with ScN2a-c13 cells. In words: cells. Format: cell-based. The settings on record: Mus musculus; N=3; read-out: EC50 by calcein for cell viability.
For a further series, the system named is P-gp (MDR1). Kind of series: in vitro. The conditions noted are these: dog, MDCK-MDR1.
Another series can be described thus: in vitro. The settings on record: dog, MDCK-MDR1.
The mark [16] stands for this setting: Table 29, 2-AMT analogs tested for potency, usually n = 3 or more.
Where [17] appears, read: CD-1, mouse, mouse liver microsomes.

Values after ≈ are worked out from the molar mass of the structure shown. Like-named read-outs stand apart in the source and are kept apart here.

As a reminder, the EC50 is the concentration that produces a half-maximal response. For `COc1cc(OC)cc(C(=O)Nc2ccc(I)cn2)c1` [IND85671], the results for the EC50 in the series with PrP^C in N2a-c13 cells and in the series on PrP^C in T98G cells [1] were 0.863 µM and 1.1 µM, respectively.
Regarding `O=C(O)c1cccc2c1NC(C(=O)O)C1CC=CC21` (centres unmarked) [IND-0001270, 3a, 4,5,9b-tetrahydro-3H cyclopenta[c]quinoline-4,6-dicarboxylic acid], the “antiprion activity (in words)” value in [2] is listed as “active”. For the same compound, the “activity on PrP^Sc in nondividing cells (in words)” value in [3] is “active”. In addition, the “activity on PrP^C (in words)” value in the series on PrP^C in IMR32 cells [4] and with PrP^C in T98G cells [5] was “active” throughout.
`CCOC(=O)c1[nH]c2c(c1C)C(=O)CC(c1ccco1)C2` (centres unmarked) [IND87564]: the EC50 in the series on PrP^C in N2a-c13 cells stood at 1.12 µM; with PrP^C in T98G cells [1], 0.25 µM.
Usually half-life stands for the time in which the quantity being followed falls by half. Low readings indicate rapid decline, high ones slow decline. Consider `NC(=O)c1ccccc1NC(=O)c1cccnc1N1CCCCC1` [IND87406], for which, in series [6] (human liver microsomes, predicted hepatic extraction), the “Hepatic Extraction Ratio Human” value is listed as 0.65. The half-life at 1 μM in series [6] (human liver microsomes) worked out at 37.1 min; in series [7] (mouse, mouse liver microsomes), 6.35 min. Further, the results for the EC50 in the series on PrP^C in N2a-c13 cells and in the series with PrP^C in T98G cells [1] were 3.11 µM and 1.12 µM, respectively. Besides, the “Hepatic Extraction Ratio Mouse” value in series [7] (mouse liver microsomes, predicted hepatic extraction) is 0.91.
By Kp is commonly meant tissue or fluid exposure divided by exposure in the circulation. The term bioavailability denotes the share of a dose that reaches the circulation, judged against a reference dose that is usually intravenous. A low value points to little systemic uptake. Turning to `C(=N\Nc1ccc(-c2cnco2)cc1)/c1ccncc1` [Compound B, (E)-5-(4-(2-(pyridin-4-ylmethylene)hydrazinyl)phenyl)oxazole, reference compound], the half-life at 1 μM in [8] was greater than 60 min; in series [6] (human liver microsomes) it was greater than 60 min; in [7] (setting [17]), 30 min. In [8], the “% remaining after a 60-min incubation, Rat” value was found to be 77%. The “% remaining after a 60-min incubation, Human” value in series [6] (human liver microsomes) amounted to 68%. In addition, the EC50 in series [9] (setting [16]) is 246 nM; in series [9] (read-out: EC50, PrP^Sc ELISA in dividing ScN2a-c13 cells) it was 400 nM. Also, the results for the “dose with lethal toxicity” value in [10] (administered chronically in vivo for eight days) and in [10] (administered in vivo) were greater than 110 mg/kg/day and no less than 150 mg/kg/day, respectively. The tolerated dose result in series [10] (at least eight days) is “up to 100 mg/kg/day”. The “brain concentration as multiple of EC50” value in series [10] (doses up to 100 mg/kg/day for at least eight days) is given as greater than 10 ×EC50. Besides, the concentration at 3 days in series [11] (100 mg/kg/day, Brain concentrations, 3 days, FVB mice) is roughly 10000 nM. Besides, the “Unbound (%), Human Plasma” value in the series “Binding in human plasma” worked out at 2.10 ± 1.11%. Besides, the “Unbound (%), Mouse Plasma” value in “Binding in mouse plasma” amounted to 9.06 ± 2.31%. Moreover, in series [7] (mouse), the “Hepatic Extraction Ratio Mouse” value is 0.8. The “% remaining after a 60-min incubation, Mouse” value in [7] (mouse liver microsomes) turned out to be 29%. For the same compound, the “effect in prion-infected mice” value in the series with prion-infected mice is reported as “extended the incubation times”. Further, in [3], the “activity on PrP^Sc in nondividing cells (in words)” value is “inactive”. In addition, in series [12] (25, 50, 100, and 150 mg/kg for 3 days in liquid rodent diet, FVB mice), the Toleration result is reported as “All doses were tolerated, with no animals showing lethal toxicity”. The animals dying in series [12] (≧150 mg/kg/day for 8 days) is 2/4. For the same compound, the “Unbound (%), Cell-culture Media” value in [13] was 36.5 ± 3.30%. This compound also showed a Kp in series [14] of 0.5. The same compound gave a bioavailability in series [14] of 25 to 27%.
In the case of `O=C(Cc1ccc(Br)cc1)NCc1ccccc1` [IND-0061769], in the series on IMR32 cells, the “% Inhibition: Calcein (IMR32)” value was 21%. For the same compound, the EC50 in the series on PrP^C in IMR32 cells [4] (read-out: EC50, PrP^C) came to 2050 nM; in the series with PrP^C in T98G cells [5] (read-out: EC50, PrP^C), 1840 nM. Also, in the series on T98G cells, the “% Inhibition: Calcein (T98G)” value is on record as 38%. Moreover, the “% Inhibition: SPC (IMR32)” value with PrP^C in IMR32 cells [15] is reported as “MW: 304.2 % Inhibition: SPC (IMR32): 46 Calcein: 21 SPC (T98G): 63 Calcein: 38”. In addition, in the series with PrP^C in T98G cells [1], the “% Inhibition: SPC (T98G)” value was “MW: 304.2 % Inhibition: SPC (IMR32): 46 Calcein: 21 SPC (T98G): 63 Calcein: 38”.
As usually defined, the solubility is how much of the substance goes into solution per volume. A lower solubility goes with a poorly soluble substance. Broadly, the efflux ratio is the permeability from basolateral to apical divided by that in the opposite direction, in the common usage. Broadly, the Papp A→B is the apparent permeability from the apical to the basolateral side of a cell layer. A low value points to slow passage. By Papp B→A is commonly meant the apparent permeability from the basolateral to the apical side of a cell layer. As for `Cc1cccc(Nc2nc(-c3cc4ccccc4o3)cs2)n1` [IND22, (4-Benzofuran-2-yl-thiazol-2-yl)-(6-methyl-pyridin-2-yl)-amine], the half-life at 1 μM in [8] is greater than 60 min; in [6] (human liver microsomes), greater than 60 min; in [6] (liver microsomes) it was greater than 60 min; in series [7] (CD-1, mouse, liver microsomes), 49 min; in [7] (setting [17]) it was 49 min. The “% remaining after a 60-min incubation, Rat” value in series [8] is on record as 64%. Moreover, in series [8] (rat microsomes), the “Hepatic Extraction Ratio Rat” value stood at 0.4. Moreover, the solubility in the series “physchem” (FaSSIF) is 59 µM (≈ 18.1 µg/mL); in the series “physchem” (cell culture media, plasma or biological fluid), 20 µM (≈ 6.15 µg/mL); in the series “physchem” (pH 2 (HCl) buffer, pH 2, simulated gastric fluid) it was 12 µM (≈ 3.69 µg/mL); in “physchem” (pH 7.4 (phosphate) buffer, pH 7.4, aqueous buffer) it was less than 1 µM. In addition, in series [6] (human liver microsomes), the “% remaining after a 60-min incubation, Human” value came to 99%. Also, the concentration giving a half-maximal response (EC50) in series [9] (AMT analogs tested for potency) was 1460 nM; in series [9] (setting [16]), 1460 nM; with ScN2a-c13 cells it was greater than 10000 nM; in [2] (read-out: EC50 (ELISA), reduction of PrP^Sc load), 1460 nM. Also, the concentration at 3 days in [11] (40 mg/kg, Brain Concentration (Css), three-day dosing in liquid diet, brain) was 1310 ± 390 nM; in [11] (40 mg/kg, Plasma Concentration (Css), three-day dosing in liquid diet, plasma), 1490 ± 150 nM; in series [11] (80 mg/kg, Brain Concentration (Css), three-day dosing in liquid diet, brain), 2700 ± 520 nM; in series [11] (80 mg/kg, Plasma Concentration (Css), three-day dosing in liquid diet, plasma), 2140 ± 580 nM; in series [11] (130 mg/kg, Brain Concentration (Css), three-day dosing in liquid diet, brain) it was 3740 ± 410 nM; in series [11] (130 mg/kg, Plasma Concentration (Css), three-day dosing in liquid diet, plasma), 2500 ± 670 nM. The concentration at 3 days stood at 3230 ± 2620 nM in series [11] (210 mg/kg, Brain Concentration (Css), three-day dosing in liquid diet, brain) and 1980 ± 1240 nM in series [11] (210 mg/kg, Plasma Concentration (Css), three-day dosing in liquid diet, plasma). The efflux ratio with P-gp (MDR1) was determined as 0.9. This compound also came in with a Papp A→B in the series “in vitro” of 9.5 ×10⁻⁶ cm/s. The Papp B→A in “in vitro” turned out to be 8.4 ×10⁻⁶ cm/s. The “Hepatic Extraction Ratio Mouse” value in [7] (mouse) and in series [7] (mouse microsomes) was 0.7 each time. For the same compound, the “% remaining after a 60-min incubation, Mouse” value in series [7] (mouse liver microsomes) turned out to be 40%. Also, the Toleration entry in series [12] (210 mg/kg/day for 14 days, mice) is “well tolerated”. The “Earliest deaths in treated mice” value in series [12] (long-term dosing in mice) was 59 days. The “solubility in FaSSIF (in words)” value (fasted-state simulated intestinal fluid) is recorded as “higher solubility”. Under “pH 2 (HCl) buffer”, the “solubility at pH 2.0 (in words)” value is reported as “higher solubility”. Moreover, in series [14], the partition ratio (Kp) was determined as 0.5. The compound also showed a bioavailability in series [14] of 46%. In addition, in series [14] (single oral dose, FVB mice, brain), the “Brain exposure (AUClast) ranking” value is given as “highest AUC values in brain”.
